# Data published in patent publication US4692438A, “Pyridazo-diazepines, diazocines, and -triazepines having anti-hypertensive activity” (Hoffmann-La Roche Inc., priority 1984, dated 1987).
# Biological target: T1, angiotensin converting enzyme (Oryctolagus cuniculus, UniProt P12822)
# T1 sequence (P12822 34-1310): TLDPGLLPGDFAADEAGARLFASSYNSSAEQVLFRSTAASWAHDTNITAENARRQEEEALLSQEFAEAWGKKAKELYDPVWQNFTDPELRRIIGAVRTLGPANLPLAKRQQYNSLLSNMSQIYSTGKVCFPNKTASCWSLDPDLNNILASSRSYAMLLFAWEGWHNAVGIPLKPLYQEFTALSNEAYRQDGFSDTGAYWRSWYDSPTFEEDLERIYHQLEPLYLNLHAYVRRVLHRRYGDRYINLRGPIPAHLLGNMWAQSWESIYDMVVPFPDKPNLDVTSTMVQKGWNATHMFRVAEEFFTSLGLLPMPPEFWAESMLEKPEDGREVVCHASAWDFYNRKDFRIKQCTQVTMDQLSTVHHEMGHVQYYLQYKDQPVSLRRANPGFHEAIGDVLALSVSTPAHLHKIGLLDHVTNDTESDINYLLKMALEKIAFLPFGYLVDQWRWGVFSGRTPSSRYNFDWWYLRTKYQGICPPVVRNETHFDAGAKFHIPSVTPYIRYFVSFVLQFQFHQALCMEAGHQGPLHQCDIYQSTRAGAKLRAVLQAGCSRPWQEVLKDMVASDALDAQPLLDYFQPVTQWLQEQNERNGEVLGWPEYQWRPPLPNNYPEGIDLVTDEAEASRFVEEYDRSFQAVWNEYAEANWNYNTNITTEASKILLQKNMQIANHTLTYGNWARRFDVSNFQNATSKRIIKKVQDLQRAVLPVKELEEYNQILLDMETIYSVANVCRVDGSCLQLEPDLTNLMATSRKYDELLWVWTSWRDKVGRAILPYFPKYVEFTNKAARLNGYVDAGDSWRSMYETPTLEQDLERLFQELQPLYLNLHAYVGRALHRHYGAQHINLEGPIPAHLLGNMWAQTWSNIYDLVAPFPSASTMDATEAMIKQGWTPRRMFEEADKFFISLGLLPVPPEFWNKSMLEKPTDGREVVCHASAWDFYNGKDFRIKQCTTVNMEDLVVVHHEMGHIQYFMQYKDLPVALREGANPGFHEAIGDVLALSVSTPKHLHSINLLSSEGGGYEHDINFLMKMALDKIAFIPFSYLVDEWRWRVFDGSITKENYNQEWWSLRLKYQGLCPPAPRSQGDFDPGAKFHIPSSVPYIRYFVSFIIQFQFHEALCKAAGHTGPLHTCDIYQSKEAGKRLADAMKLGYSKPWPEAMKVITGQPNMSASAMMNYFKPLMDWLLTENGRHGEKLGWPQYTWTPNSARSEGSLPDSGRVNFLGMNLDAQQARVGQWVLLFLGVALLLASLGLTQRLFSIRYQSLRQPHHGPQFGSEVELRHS
# Assay: in vitro inhibition of angiotensin converting enzyme (cleavage of hippuryl-histidyl-leucine)
# Format: biochemical
# Details: substrate hippuryl-histidyl-leucine 2 mM; potassium phosphate buffer pH 8.3, 100 mM; NaCl 300 mM; 24 minutes at 37° C.
# Protocol: The activity of the compounds of formula I and the aforementioned salts in inhibiting angiotensin converting enzyme in vitro can be determined by the following test.
# The method used is based on the method of Cushman and Cheung (Biochem. Pharmacol., 20. 1637-1648) incorporating the modifications introduced by Hayakari et al (Anal. Biochem., 84. 361-369). The substrate, which is hippuryl-histidyl-leucine, 2 mM, is incubated with angiotensin converting enzyme in the presence or absence of various concentrations of test substance in potassium phosphate buffer (pH 8.3; 100 mM) containing sodium chloride (300 mM) for 24 minutes at 37° C. (total value 500 μl). If the test substance is an ester, it is appropriate to cleave it by means of hog liver esterase before carrying out the test. The reaction is terminated by the addition of 3 ml of potassium phosphate buffer (pH 8.3; 200 mM) at 0° C. 2,4,6-Trichloro-s-triazine (3%) in 1.5 ml of dioxane and the mixture is agitated until the yellow chromophore has developed fully. The samples are then centrifuged to remove any precipitate which has formed. The yellow chromophore formed by the reaction of the 2,4,6-trichloro-s-triazine with free hippuric acid is measured spectrophoto metrically at 382 nm. The IC50 values are defined as the concentration of test substance which reduces by 50% the cleavage of hippuryl-histidyl-leucine by antiotensin converting enzyme under the aforementioned conditions.
# The results obtained in the foregoing test using representative compounds of formula I as the test substance are compiled in the following Table: […]
row,IC50,Compound
1,2.6 nM,"O=C(O)[C@@H]1CCCN2CCC[C@H](CS)C(=O)N12 [Compound B, octahydro-9(S)-mercaptomethyl-10-oxo-pyridazo[1,2-a][1,2]diazepine-1(S)-carboxylic acid]"
2,19 nM,"O=C(O)[C@@H]1CCCN2C(=O)CCCC(CS)C(=O)N12 (stereo partly drawn) [Compound C, decahydro-10(R,S)-mercaptomethyl-6,11-dioxo-6H-pyridazo[1,2-a][1,2]diazocine-1(S)-carboxylic acid]"
3,4 nM,"O=C(O)[C@@H]1CCCN2C(=O)CC[C@H](CS)C(=O)N12 [Compound A, octahydro-9(S)-mercaptomethyl-6,10-dioxo-6H-pyridazo[1,2-a][1,2]diazepine-1(S)-carboxylic acid]"
4,51 nM,"O=C(O)[C@@H]1CCCN2C(=O)CN(Cc3ccccc3)C(CS)C(=O)N12 (single isomer, unassigned) [Compound D]"
